Experimental findings from patent US20090325933A1, “Pyrimidinone Derivatives and Their Use as a Drug” (Ipsen Pharma S.A.S., priority 2006, published 2009) are described below.

For orientation: Ki means the equilibrium dissociation constant of an inhibitor or competing ligand from its target.

Structures are written as SMILES. Where two headings read alike, the source gives them in different places.

This test addresses T1, human CB2 receptors (Homo sapiens, UniProt P34972).
T1 construct: expressed in transfected cells; membrane preparations
The test can be described thus: Affinity for human CB2 cannabinoid receptors: inhibition of [3H]-CP55940 binding to transfected CHO-K1 cell membranes. The settings on record: inhibition constant value range, [3H]-CP55940 1 nM, Cheng-Prusoff. As to the method: The affinity of the compounds of the present invention for the different sub-types of cannabinoid receptors was measured according to procedures analogous to those described hereafter for the human CB2 receptor.
Study of the Affinity of the Compounds for the Human CB2 Cannabinoid Receptors:
The affinity of the compounds of the invention for the human CB2 receptors is determined by measuring the inhibition of the binding of [^3H]-CP55940 to transfected CHO-K1 cell membrane preparations.
The CHO-K1 cells expressing the human CB2 receptors in stable fashion are cultured in an RPMI 1640 medium containing 10% foetal calf serum, 2 mM of glutamine, 100 U/ml of penicillin, 0.1 mg/ml of streptomycin and 0.5 mg/ml of G418. The cells are collected with 0.5 mM of EDTA and centrifuged at 500 g for 5 minutes at 4° C. The pellet is re-suspended in phosphate buffered saline medium (PBS) and centrifuged at 500 g for 5 minutes at 4° C. The pellet is re-suspended in a Tris 50 mM buffer medium at pH 7.4 and centrifuged at 500 g for 5 minutes at 4° C. The cells are lysed by sonication and centrifuged at 39,000 g for 10 minutes at 4° C. The pellet is re-suspended in the Tris 50 mM buffer medium at pH 7.4 and centrifuged at 50,000 g for 10 minutes at 4° C. The membranes obtained in this last pellet are stored at −80° C.
Measurement of the competitive inhibition of the binding of the [^3H]-CP55940 to the CB2 receptors is carried out in duplicate using 96-well polypropylene plates. The cell membranes (10 μg of proteins/well) are incubated with the [^3H]-CP55940 (1 nM) for 60 minutes at 25° C. in a Tris-HCl 50 mM buffer medium, pH 7.4, comprising 0.1% bovine serum albumin (BSA), 5 mM of MgCl2, and 50 μg/ml of bacitracin.
The bound [^3H]-CP55940 is separated from the free [^3H]-CP55940 by filtration through GF/C glass fibre filter plates (Unifilter, Packard) pre-impregnated with 0.1% polyethylenimine (P.E.I.), using a Filtermate 196 (Packard). The filters are washed with Tris-HCl 50 mM buffer, pH 7.4 at 0-4° C. and the radioactivity present is determined using a counter (Packard Top Count).
The specific binding is obtained by subtracting the non-specific binding (determined in the presence of 0.1 μM of WIN55212-2 from the total binding). The data are analyzed by computer-assisted non-linear regression (MDL). For each test, a Cheng-Prusoff correction is made in order to convert the IC50 to the inhibition constant, Ki.
where [L] is the concentration of the radioligand used in the test and Kd is the radioligand equilibrium dissociation constant.

T1 sequence (P34972 whole entry): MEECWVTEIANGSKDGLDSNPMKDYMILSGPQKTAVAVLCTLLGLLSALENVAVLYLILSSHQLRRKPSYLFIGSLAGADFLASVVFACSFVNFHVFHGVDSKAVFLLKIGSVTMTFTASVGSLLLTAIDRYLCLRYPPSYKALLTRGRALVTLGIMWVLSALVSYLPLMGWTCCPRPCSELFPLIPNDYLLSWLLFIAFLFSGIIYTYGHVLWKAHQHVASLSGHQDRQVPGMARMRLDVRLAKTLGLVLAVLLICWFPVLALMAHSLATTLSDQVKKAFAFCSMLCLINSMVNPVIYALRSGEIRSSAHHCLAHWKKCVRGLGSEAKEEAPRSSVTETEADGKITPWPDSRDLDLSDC

Turning to `O=c1c2sccc2nc(-c2ccc(-c3cccs3)cc2)n1CCc1ccccc1` [Example 20], the Ki was less than 0.5 µM (read-out: Ki < 0.5 μM) and less than 5 µM (read-out: Ki < 5 μM).
On to `O=c1c2sccc2nc(-c2ccc(-c3ccccc3)cc2)n1CCc1ccc(Cl)cc1Cl` [Example 6], for which the Ki is less than 0.5 µM (read-out: Ki < 0.5 μM) and less than 5 µM (read-out: Ki < 5 μM).
As to `O=c1c2ccsc2nc(-c2ccc(-c3ccccc3)cc2)n1CCN1CCCCC1` [Example 49], the Ki (read-out: Ki < 0.5 μM) is less than 0.5 µM and the inhibitory constant (Ki) (read-out: Ki < 5 μM) was less than 5 µM.
Consider `O=c1c2sccc2nc(C2CCC(c3ccccc3)CC2)n1CCN1CCCCC1` (stereo not shown) [Example 53], for which the Ki runs as follows: (read-out: Ki < 0.5 μM) less than 0.5 µM; (read-out: Ki < 5 μM) less than 5 µM.
On to `Cc1cc2nc(-c3ccc(-c4cccc(Cl)c4)cc3)n(CCN3CCCCC3)c(=O)c2s1` [Example 86], for which the Ki by setting is: (read-out: Ki < 0.5 μM) less than 0.5 µM; (read-out: Ki < 5 μM) less than 5 µM.
With `O=c1c2sc3ccccc3c2nc(-c2ccc(-c3ccccc3)cc2)n1CCC1CCOCC1` [Example 22], the Ki (read-out: Ki < 5 μM) is less than 5 µM.
For the compound `CC(C)(C)c1cc2nc(-c3ccc(-c4ccccc4)cc3)n(CCN3CCCCC3)c(=O)c2s1` [Example 57], the Ki (read-out: Ki < 5 μM) is less than 5 µM.
Regarding `O=c1c2sccc2nc(-c2ccc(C3CCCCC3)cc2)n1CCc1ccccc1` [Example 18], the inhibitory constant (Ki) is, setting by setting: (read-out: Ki < 0.5 μM) less than 0.5 µM; (read-out: Ki < 5 μM) less than 5 µM.
As for `O=c1c2sccc2nc(-c2ccc(-c3ccccc3)cc2)n1CCc1ccc(Cl)c(Cl)c1` [Example 7], the Ki by setting is: (read-out: Ki < 0.5 μM) less than 0.5 µM; (read-out: Ki < 5 μM) less than 5 µM.
As to `O=c1c2sccc2nc(-c2ccc(C3CCCCC3)cc2)n1CCN1CCCCC1` [Example 36], the inhibition constant (Ki) runs as follows: (read-out: Ki < 0.5 μM) less than 0.5 µM; (read-out: Ki < 5 μM) less than 5 µM.
Turning to `Cc1ccccc1CCn1c(-c2ccc(-c3ccccc3)cc2)nc2ccsc2c1=O` [Example 8], the Ki (read-out: Ki < 5 μM) was less than 5 µM.
On to `Cc1cc2nc(-c3ccc(-c4c(Cl)cccc4Cl)cc3)n(CCN3CCCCC3)c(=O)c2s1` [Example 90], for which the Ki was less than 0.5 µM (read-out: Ki < 0.5 μM) and less than 5 µM (read-out: Ki < 5 μM).
Turning to `COc1ccc(CCn2c(-c3ccc(-c4ccccc4)cc3)nc3ccsc3c2=O)cc1OC` [Example 2], the Ki (read-out: Ki < 5 μM) was less than 5 µM.
Turning to `O=c1c2sccc2nc(-c2ccc(-c3cccc(C(F)(F)F)c3)cc2)n1CCN1CCCCC1` [Example 74], the inhibitory constant (Ki) was less than 0.5 µM (read-out: Ki < 0.5 μM) and less than 5 µM (read-out: Ki < 5 μM).
For `Cc1cc2nc(-c3ccc(-c4c(C)cccc4C)cc3)n(CCN3CCCCC3)c(=O)c2s1` [Example 91], the Ki (read-out: Ki < 0.5 μM) was less than 0.5 µM and the Ki (read-out: Ki < 5 μM) was less than 5 µM.
As for `Cc1ccc(-c2ccc(-c3nc4ccsc4c(=O)n3CCN3CCCCC3)cc2)cc1C` [Example 60], the Ki was less than 0.5 µM (read-out: Ki < 0.5 μM) and less than 5 µM (read-out: Ki < 5 μM).
For `O=c1c2ccsc2nc(-c2ccc(-c3ccccc3)cc2)n1CCN1CCOCC1` [Example 48], the Ki (read-out: Ki < 5 μM) was less than 5 µM.
Regarding `Cc1ccc(CCn2c(-c3ccc(-c4ccccc4)cc3)nc3ccsc3c2=O)cc1C` [Example 9], for the setting “read-out: Ki < 5 μM”, the Ki is less than 5 µM.
`O=c1c2sccc2nc(-c2ccc(-c3cccs3)cc2)n1CCN1CCCCC1` [Example 39]: the Ki (read-out: Ki < 0.5 μM) was less than 0.5 µM and the Ki (read-out: Ki < 5 μM) is less than 5 µM.
As to `COc1ccccc1-c1ccc(-c2nc3ccsc3c(=O)n2CCN2CCCCC2)cc1` [Example 76], the Ki is, setting by setting: (read-out: Ki < 0.5 μM) less than 0.5 µM; (read-out: Ki < 5 μM) less than 5 µM.
In the case of `Cc1ccccc1-c1ccc(-c2nc3c(C)c(C)sc3c(=O)n2CCN2CCCCC2)cc1` [Example 75], the Ki reads like this: (read-out: Ki < 0.5 μM) less than 0.5 µM; (read-out: Ki < 5 μM) less than 5 µM.
Consider `Cc1cc2nc(-c3ccc(-c4cccc(F)c4)cc3)n(CCN3CCCCC3)c(=O)c2s1` [Example 85], for which the Ki was less than 0.5 µM (read-out: Ki < 0.5 μM) and less than 5 µM (read-out: Ki < 5 μM).
With `Cc1cc2nc(-c3ccc(-c4ccccc4F)cc3)n(CCN3CCCCC3)c(=O)c2s1` [Example 78], the Ki runs as follows: (read-out: Ki < 0.5 μM) less than 0.5 µM; (read-out: Ki < 5 μM) less than 5 µM.
In the case of `O=c1c2sccc2nc(-c2ccc3[nH]c4ccccc4c3c2)n1CCN1CCCCC1` [Example 52], the Ki (read-out: Ki < 5 μM) is less than 5 µM.
For `O=c1c2sccc2nc(-c2ccc3cc4ccccc4cc3c2)n1CCN1CCCCC1` [Example 50], the Ki is less than 0.5 µM (read-out: Ki < 0.5 μM) and less than 5 µM (read-out: Ki < 5 μM).
Taken in the same sequence, the figures for `Cc1cc2nc(-c3ccc(-c4ccccc4C)cc3)n(CCN3CCCCC3)c(=O)c2s1` [Example 68] were less than 0.5 µM and less than 5 µM.
With `COc1cccc(-c2ccc(-c3nc4cc(C)sc4c(=O)n3CCN3CCCCC3)cc2)c1` [Example 88], the inhibitory constant (Ki) (read-out: Ki < 0.5 μM) is less than 0.5 µM and the Ki (read-out: Ki < 5 μM) was less than 5 µM.
Regarding `CC(C)(C)c1ccc(-c2ccc(-c3nc4ccsc4c(=O)n3CCN3CCCCC3)cc2)cc1` [Example 41], the Ki (read-out: Ki < 5 μM) is less than 5 µM.
Turning to `CC1CCCN(CCn2c(-c3ccc(-c4ccccc4)cc3)nc3ccsc3c2=O)C1` (stereo not shown) [Example 42], the Ki by setting is: (read-out: Ki < 0.5 μM) less than 0.5 µM; (read-out: Ki < 5 μM) less than 5 µM.
As for `O=C(c1ccccc1)c1ccc(-c2nc3ccsc3c(=O)n2CCN2CCCCC2)cc1` [Example 29], the Ki is less than 0.5 µM (read-out: Ki < 0.5 μM) and less than 5 µM (read-out: Ki < 5 μM).
For the compound `Cc1cccc(C)c1-c1ccc(-c2nc3ccsc3c(=O)n2CCN2CCCCC2)cc1` [Example 81], the Ki is less than 0.5 µM (read-out: Ki < 0.5 μM) and less than 5 µM (read-out: Ki < 5 μM).
Consider `Cc1sc2c(=O)n(CCN3CCCCC3)c(-c3ccc(-c4ccccc4)cc3)nc2c1C` [Example 55], for which the Ki is less than 0.5 µM (read-out: Ki < 0.5 μM) and less than 5 µM (read-out: Ki < 5 μM).
As to `O=c1c2sccc2nc(-c2ccc(C3CCCCC3)cc2)n1CCN1CCCC1` [Example 35], the Ki reads like this: (read-out: Ki < 0.5 μM) less than 0.5 µM; (read-out: Ki < 5 μM) less than 5 µM.
On to `O=c1c2sccc2nc(-c2ccc(-c3ccccc3)cc2)n1CCc1cccs1` [Example 3], for which the inhibitory constant (Ki) (read-out: Ki < 5 μM) is less than 5 µM.
As to `O=c1c2sc3ccccc3c2nc(-c2ccc(-c3ccccc3)cc2)n1CCN1CCCCC1` [Example 44], the Ki is less than 0.5 µM (read-out: Ki < 0.5 μM) and less than 5 µM (read-out: Ki < 5 μM).
For `O=c1c2sccc2nc(-c2ccc(C3CCCCC3)cc2)n1CCC1CCOCC1` [Example 17], in that order: less than 0.5 µM and less than 5 µM.
With `CC1CCN(CCn2c(-c3ccc(-c4ccccc4)cc3)nc3ccsc3c2=O)CC1` [Example 43], the inhibition constant Ki (read-out: Ki < 0.5 μM) is less than 0.5 µM and the Ki (read-out: Ki < 5 μM) is less than 5 µM.
Take `O=c1c2sccc2nc(-c2ccc(-c3ccccc3)cc2)n1CCN1CCCCCC1` [Example 34]: the Ki by setting is: (read-out: Ki < 0.5 μM) less than 0.5 µM; (read-out: Ki < 5 μM) less than 5 µM.
In the case of `Cc1cc2nc(-c3ccc(-c4ccccc4)cc3)n(CCN3CCCCC3)c(=O)c2s1` [Example 61], the Ki runs as follows: (read-out: Ki < 0.5 μM) less than 0.5 µM; (read-out: Ki < 5 μM) less than 5 µM.
In the case of `O=c1c2sc(-c3ccccc3)cc2nc(-c2ccc(-c3ccccc3)cc2)n1CCN1CCCCC1` [Example 58], the inhibition constant (Ki) reads like this: (read-out: Ki < 0.5 μM) less than 0.5 µM; (read-out: Ki < 5 μM) less than 5 µM.
For `Cc1ccccc1-c1ccc(-c2nc3ccsc3c(=O)n2CCN2CCCCC2)cc1` [Example 54], in that order: less than 0.5 µM and less than 5 µM.
`O=c1c2sccc2nc(-c2ccc(-c3ccccc3)cc2)n1CCN1CCCC1` [Example 26]: the Ki is less than 0.5 µM (read-out: Ki < 0.5 μM) and less than 5 µM (read-out: Ki < 5 μM).
With `O=c1c2sccc2nc(-c2ccc(-c3ccc(Cl)c(Cl)c3)cc2)n1CCN1CCCCC1` [Example 56], the inhibitory constant (Ki) reads like this: (read-out: Ki < 0.5 μM) less than 0.5 µM; (read-out: Ki < 5 μM) less than 5 µM.
On to `O=c1c2sccc2nc(-c2ccc(Cc3ccccc3)cc2)n1CCN1CCCCC1` [Example 32], for which the Ki runs as follows: (read-out: Ki < 0.5 μM) less than 0.5 µM; (read-out: Ki < 5 μM) less than 5 µM.
Take `O=c1c2sccc2nc(-c2ccc(-c3ccccc3)cc2)n1CCc1ccncc1` [Example 15]: the Ki (read-out: Ki < 0.5 μM) was less than 0.5 µM and the Ki (read-out: Ki < 5 μM) was less than 5 µM.
In the case of `O=c1c2sccc2nc(-c2ccc(-c3ccccc3)cc2)n1CCC1=CCCCC1` [Example 71], the Ki by setting is: (read-out: Ki < 0.5 μM) less than 0.5 µM; (read-out: Ki < 5 μM) less than 5 µM.
For `O=c1c2sccc2nc(-c2ccc(-c3ccccc3)cc2)n1CCc1ccccc1` [Example 13], in that order: less than 0.5 µM and less than 5 µM.
As for `Cc1cc2nc(-c3ccc(-c4ccccc4C(F)(F)F)cc3)n(CCN3CCCCC3)c(=O)c2s1` [Example 83], the inhibitory constant (Ki) (read-out: Ki < 0.5 μM) is less than 0.5 µM and the Ki (read-out: Ki < 5 μM) is less than 5 µM.
For `O=c1c2sccc2nc(-c2ccc(-c3ccccc3)cc2)n1CCC1CCCCC1` [Example 11], in that order: less than 0.5 µM and less than 5 µM.
On to `O=c1c2sccc2nc(-c2ccc(-c3cccs3)cc2)n1CCN1CCOCC1` [Example 40], for which the Ki is less than 0.5 µM (read-out: Ki < 0.5 μM) and less than 5 µM (read-out: Ki < 5 μM).
